This is an account of results in publication PMC8579695, “The Stringent Response Inhibits 70S Ribosome Formation in Staphylococcus aureus by Impeding GTPase-Ribosome Interactions” (mBio, 2021).

This test deals with HflX (Staphylococcus aureus, UniProt Q2FYY9). Put plainly: GTPase activity assay of wild-type and Atto488-labeled HflX. In kind it is biochemical. The settings on record: 100 μM ppGpp, 1 μM GTP, 0.1 μM RA-GTPase, 0.1 μM 70S ribosomes, 37°C, 60 min. An excerpt: To gain further insight into the binding mechanism and how (p)ppGpp reduces the association of RA-GTPases to the ribosomal subunits, we used a stopped-flow technique with fluorescent derivatives of the RA-GTPases (Fig. 3A). Structural predictions of all four RA-GTPases were built by homology modeling using available structures to assess the availability of suitable residues for fluorescence labeling (see Fig. S3A and B) ([43]). Both RbgA and HflX were amenable to covalent linkage to the fluorophore Atto-488 using maleimide chemistry with exposed cysteine residues. […]
Supplementary file : FIG S3 Labeling sites and GTPase activity of Atto488-labelled proteins. […] Enzymatic activity was monitored by TLC and quantified by using ImageQuant. […]
GTPase activity assays were performed as previously described ([10]). Briefly, the ability of proteins to hydrolyze GTP was determined by incubating 100 nM recombinant protein with 100 nM S. aureus 70S ribosomes, 1 μM GTP and 2.78 nM [α-^32P]GTP in 40 mM Tris (pH 7.5), 100 mM NaCl (100 mM KCl for RbgA), and 10 mM MgCl2 at 37°C for the indicated times. […] The radioactive spots were exposed to a BAS-MS imaging plate (Fujifilm) and visualized using an LA 7000 Typhoon PhosphorImager (GE Healthcare), and images were quantified using ImageQuant (GE Healthcare).

HflX, sequence (Q2FYY9 entry or part of it): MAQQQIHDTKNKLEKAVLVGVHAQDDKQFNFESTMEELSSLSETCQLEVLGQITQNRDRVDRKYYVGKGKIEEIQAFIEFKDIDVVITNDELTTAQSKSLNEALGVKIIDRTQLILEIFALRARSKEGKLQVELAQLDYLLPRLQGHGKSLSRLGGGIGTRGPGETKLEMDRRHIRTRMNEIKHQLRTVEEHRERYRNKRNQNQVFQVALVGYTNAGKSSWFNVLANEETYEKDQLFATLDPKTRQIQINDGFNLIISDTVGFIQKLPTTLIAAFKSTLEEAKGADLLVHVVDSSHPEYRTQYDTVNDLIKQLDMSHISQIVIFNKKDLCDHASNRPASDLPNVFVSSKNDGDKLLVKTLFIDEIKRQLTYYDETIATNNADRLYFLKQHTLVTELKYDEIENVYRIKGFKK

Turning to `Nc1nc2c(ncn2[C@@H]2O[C@H](COP(=O)(O)OP(=O)(O)O)[C@@H](OP(=O)(O)OP(=O)(O)O)[C@H]2O)c(=O)[nH]1` [ppGpp], the “inhibition of GTPase activity of Atto488-labeled HflX” value is “can still be inhibited”.
